The target in test [1] is swine's pancreatic elastase (E3) (Sus scrofa, UniProt P00772). Nature of the test: Inhibition constants (Ki) with pancreatic elastase and chromogenic p-nitroanilide substrates. The test is classed as biochemical. An excerpt: (§1) The earlier work also led to the surprising discovery that the carboxy group in the N-terminal part of the inhibitor as compared with the hydrophobic residue, such as an acetyl, substantially enhances inhibition capacity in the same manner as it enhances the constants of elastolytic hydrolysis of substrates of this type. It is further known that the properties of an elastolytic inhibitor are dependent upon the length of the peptide chain as well as at the substrate (eur. J. Biochem. 69, 1, 1976), higher inhibition capacity being present with a tripeptide than with a dipeptide. Experiments with vitro inhibition constants (Ki) for the alkylamides of 3-carboxypropionyl and 4-carboxybutyryl di and tripeptides were determined using pancreatic elastase and chromogenic substrates of p-nitroanilides of succinyl or glutaryl tetraalanines, the results of which are set forth in Table 1, below. Inhibition constant of the inhibitors described herein were also determined using human elastase, that is, human duodenal elastase after stimulation with cholecystokinine (E1) or lyophilized human pancreated fluid obtained by cannulation of the pancreatic duct outlet (E2), and they were then compared with swine's pancreatic elastase (E3), the results of which are set forth in Table 2, below.

Test [2] has as its target human duodenal elastase after stimulation with cholecystokinine (E1). The experiment in a line: Inhibition constants (Ki) with human duodenal elastase and chromogenic substrates. The test is classed as biochemical.
Excerpt: as §1

Test [3] concerns the target lyophilized human pancreated fluid obtained by cannulation of the pancreatic duct outlet (E2). The experiment in a line: Inhibition constants (Ki) with human pancreatic fluid elastase and chromogenic substrates. The test is classed as biochemical.
Excerpt: as §1

Test [4] can be described thus: Experimental pancreatitis in rats induced by sodium desoxycholate, serum amylase. The class given is in vivo. To be noted: simultaneous application of 20 mg intraperitoneally.
Setting [5] is: Table 1, pancreatic elastase, substrate Glt-(Ala)4-NAn, read-out: Ki, substrate Glt-(Ala)4-NAn.
The mark [6] stands for this setting: Table 1, pancreatic elastase, substrate Suc-(Ala)4-NAn, read-out: Ki, substrate Suc-(Ala)4-NAn.
The mark [7] stands for this setting: Table 2, substrate Glt-(Ala)4-NAn, read-out: Ki, Glt-(Ala)4-NAn, E1.
[8] abbreviates: Table 2, substrate Suc-(Ala)4-NAn, read-out: Ki, Suc-(Ala)4-NAn, E1.
Setting [9] is: Table 2, substrate Glt-(Ala)4-NAn, read-out: Ki, Glt-(Ala)4-NAn, E2.
[10] abbreviates: Table 2, substrate Suc-(Ala)4-NAn, read-out: Ki, Suc-(Ala)4-NAn, E2.

As usually defined, the Ki is the dissociation constant of the complex between target and ligand, obtained from inhibition or displacement.

Where two headings read alike, the source gives them in different places. Starred links: 1 amine or outer side, 2 acyl side, 3 side chain; linkers in the order of their positions; H or OH if unused. Residues, ends and D or L forms follow the SMILES beside them. *: point of attachment. Glutaryl = O=C(CCCC(=O)[*:2])[*:1]; NHPhenethyl = c1ccc(CCN*)cc1; Suc = O=C(CCC(=O)[*:2])[*:1]; NHPr = CCCN*

Sequence of swine's pancreatic elastase (E3) (P00772 27-266): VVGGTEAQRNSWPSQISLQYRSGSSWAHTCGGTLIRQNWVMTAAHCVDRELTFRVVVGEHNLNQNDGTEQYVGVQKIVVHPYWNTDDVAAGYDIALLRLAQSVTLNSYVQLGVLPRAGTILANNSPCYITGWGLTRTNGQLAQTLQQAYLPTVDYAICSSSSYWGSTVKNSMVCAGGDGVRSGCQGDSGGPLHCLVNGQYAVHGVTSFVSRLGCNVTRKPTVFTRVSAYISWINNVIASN

As for `CCNC(=O)[C@H](C)NC(=O)[C@H](C)NC(=O)[C@H](C)NC(C)=O` [Ac--(Ala)3 --NH--Et, reference compound], the Ki stood at 46 µM in test [1] (setting [5]); 28 µM in test [1] (setting [6]); 123 µM in test [2] (setting [7]); 238 µM in test [2] (setting [8]); 117 µM in test [3] (setting [9]); 69 µM in test [3] (setting [10]).

`CCNC(=O)[C@H](C)NC(=O)[C@H](C)NC(=O)CCCC(=O)O` [Glt--(Ala)2 --NH--Et] (Glutaryl-Ala-Ala-NHEt): the Ki amounted to 109 µM in test [1] (setting [5]) and 68.1 µM in test [1] (setting [6]).

Take `CCNC(=O)[C@H](C)NC(=O)[C@H](C)NC(=O)[C@H](C)NC(=O)CCCC(=O)O` [Glt--(Ala)3 --NH--Et, 4-Carboxybutyrylalanyl-alanyl Alanine Ethylamide]: the Ki in test [1] (setting [5]) came out at 8.4 µM; in test [1] (setting [6]), 8.8 µM; in test [2] (setting [7]), 19 µM; in test [2] (setting [8]), 15 µM; in test [3] (setting [9]), 19 µM; in test [3] (setting [10]), 7.4 µM. The “level of serum amylase” value in test [4] was “lower level of serum amylase”.

For `CNC(=O)[C@H](C)NC(=O)[C@H](C)NC(=O)[C@H](C)NC(=O)CCCC(=O)O` [Glt--(Ala)3 --NH--Me], the Ki came out at 320 µM in test [1] (setting [5]) and 280 µM in test [1] (setting [6]).

In the case of `CCCNC(=O)[C@H](C)NC(=O)[C@H](C)NC(=O)[C@H](C)NC(=O)CCCC(=O)O` [Glt--(Ala)3 --NH--Pr, 4-Carboxybutyrylalanyl-alanyl Alanine Propylamide], the Ki worked out at 2.5 µM in test [1] (setting [5]); 2.5 µM in test [1] (setting [6]); 7.2 µM in test [2] (setting [7]); 11 µM in test [2] (setting [8]); 4.5 µM in test [3] (setting [9]); 3.8 µM in test [3] (setting [10]).

For `CC(C)CNC(=O)[C@H](C)NC(=O)[C@H](C)NC(=O)[C@H](C)NC(=O)CCCC(=O)O` [Glt--(Ala)3 --NH--iBu, 4-Carboxybutyrylalanyl-alanyl Alanine Isobutylamide], the Ki in test [1] (setting [5]) was found to be 794 µM; in test [1] (setting [6]) it was 668 µM.

For the molecule `CCNC(=O)[C@@H]1CCCN1C(=O)[C@H](C)NC(=O)[C@H](C)NC(=O)CCCC(=O)O` [Glt--Ala--Ala--Pro--NH--Et, 4-Carboxybutyrylalanyl-alanyl Proline Ethylamide] (Glutaryl-Ala-Ala-Pro-NHEt), the Ki is 2.7 µM in test [1] (setting [5]); 1.6 µM in test [1] (setting [6]); 12 µM in test [2] (setting [7]); 10 µM in test [2] (setting [8]); 13.8 µM in test [3] (setting [9]); 2.9 µM in test [3] (setting [10]). The “level of serum amylase” value in test [4] is listed as “lower level of serum amylase”.

As for `CCCNC(=O)[C@@H]1CCCN1C(=O)[C@H](C)NC(=O)[C@H](C)NC(=O)CCCC(=O)O` [Glt-Ala-Ala-Pro-Nh-Pr, 4-Carboxybutyrylalanyl-alanyl Proline Propylamide] (Glutaryl-Ala-Ala-Pro-NHPr), the “level of serum amylase” value in test [4] is listed as “lower level of serum amylase”.

Regarding `CCNC(=O)[C@H](C)NC(=O)[C@H](C)NC(=O)[C@H](C)NC(=O)C=CC(=O)O` [Mal--(Ala)3 --NH--Et, 3-Carboxyacryolylalanyl-alanyl Alanine Ethylamide], the Ki in test [1] (setting [5]) is 30 µM; in test [1] (setting [6]), 35 µM; in test [1] (Table 2, swine's pancreatic elastase (E3), substrate Glt-(Ala)4-NAn, read-out: Ki, Glt-(Ala)4-NAn, E3), 30 µM; in test [2] (setting [7]), 73 µM; in test [2] (setting [8]), 87 µM; in test [3] (setting [9]), 117 µM. For the same molecule, in test [3] (setting [10]), the Ki turned out to be 69 µM.

As for `C[C@H](NC(=O)CCC(=O)O)C(=O)N[C@@H](C)C(=O)NCCc1ccccc1` [Suc--(Ala)2 --NH--EtPh, 3-Carboxypropionylalanyl Alanine Phenylethylamide] (Suc-Ala-Ala-NHPhenethyl), the figures for the Ki in test [1] (setting [5]) and in test [1] (setting [6]) were 666 µM and 1460 µM, respectively.

Turning to `CCNC(=O)[C@H](C)NC(=O)[C@H](C)NC(=O)[C@H](C)NC(=O)CCC(=O)O` [Suc--(Ala)3 --NH--Et, 3-Carboxypropionylalanyl-alanyl Alanine Ethylamide], the Ki in test [1] (setting [5]) was 29 µM; in test [1] (setting [6]), 20 µM; in test [1] (Table 2, swine's pancreatic elastase (E3), substrate Suc-(Ala)4-NAn, read-out: Ki, Suc-(Ala)4-NAn, E3) it was 20 µM; in test [2] (setting [7]), 89 µM; in test [2] (setting [8]), 76 µM; in test [3] (setting [9]) it was 47 µM. Besides, in test [3] (setting [10]), the Ki amounted to 29 µM.

As to `CNC(=O)[C@H](C)NC(=O)[C@H](C)NC(=O)[C@H](C)NC(=O)CCC(=O)O` [Suc--(Ala)3 --NH--Me], the Ki in test [1] (setting [5]) was determined as 680 µM; in test [1] (setting [6]), 510 µM.

Turning to `CCCNC(=O)[C@H](C)NC(=O)[C@H](C)NC(=O)[C@H](C)NC(=O)CCC(=O)O` [Suc--(Ala)3 --NH--Pr, 3-Carboxypropionylalanyl-alanyl Alanine Propylamide], the Ki is 4.5 µM in test [1] (setting [5]); 6.8 µM in test [1] (setting [6]); 21 µM in test [2] (setting [7]); 12 µM in test [2] (setting [8]); 14 µM in test [3] (setting [9]); 13 µM in test [3] (setting [10]).

For `CC(C)CNC(=O)[C@H](C)NC(=O)[C@H](C)NC(=O)[C@H](C)NC(=O)CCC(=O)O` [Suc--(Ala)3 --NH--iBu, 3-Carboxypropionylalanyl-alanyl Alanine Isobutylamide], the Ki in test [1] (setting [5]) was determined as 1470 µM; in test [1] (setting [6]), 816 µM.

As to `CCNC(=O)[C@H](C)NC(=O)[C@H](C)NC(=O)CCC(=O)O` [Suc--(ala)2 --NH--Et] (Suc-Ala-Ala-NHEt), the results for the Ki in test [1] (setting [5]) and in test [1] (setting [6]) were 166 µM and 95.2 µM, respectively.

Regarding `CCNC(=O)[C@@H]1CCCN1C(=O)[C@H](C)NC(=O)[C@H](C)NC(=O)CCC(=O)O` [Suc--Ala--Ala--Pro--NH--Et, 3-Carboxypropionylalanyl-alanyl Proline Ethylamide] (Suc-Ala-Ala-Pro-NHEt), the Ki in test [1] (setting [5]) is 4.7 µM; in test [1] (setting [6]) it was 2.5 µM; in test [2] (setting [7]) it was 19 µM; in test [2] (setting [8]), 14 µM; in test [3] (setting [9]), 17 µM; in test [3] (setting [10]) it was 23 µM.

On to `CCNC(=O)[C@@H]1CCCN1C(=O)[C@H](C)NC(=O)CCC(=O)O` [Suc--Ala--Pro--NH--Et, 3-Carboxypropionylalanyl Proline Ethylamide] (Suc-Ala-Pro-NHEt), for which the values for the Ki in test [1] (setting [5]) and in test [1] (setting [6]) were 80 µM and 111 µM, respectively.

With `CC(C)CNC(=O)[C@@H]1CCCN1C(=O)[C@H](C)NC(=O)CCC(=O)O` [Suc--Ala--Pro--NH--iBu], the Ki was determined as 5750 µM in test [1] (setting [5]) and 2040 µM in test [1] (setting [6]).
